# Where two headings read alike, the source gives them in different places.
# Biological target: T1, human recombinant PDE9 enzyme (Homo sapiens, UniProt O76083)
# T1 construct: made in house; host or cells: SF-9 insect cells
# Experiment: Phosphodiesterase 9 (PDE9) inhibitory activity, Scintillation Proximity (SPA) assay
# Format: biochemical
# How it was run: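 Scintillation proximity read-out of [3H]cGMP hydrolysis after 30 min at room temperature, with enzyme addition starting the reaction. The enzyme was human recombinant PDE9 expressed in SF-9 cells, titrated to keep substrate turnover at 20% or less. Compound wells held 2% DMSO final, and background was defined with excess PDE inhibitor.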
# [1] = human recombinant PDE9 from SF-9 cells, 50 nM [3H]cGMP, room temperature, 30 min, Examples 3-114, read-out: G5678A (U): IC50
# [2] = human recombinant PDE9 from SF-9 cells, 50 nM [3H]cGMP, room temperature, 30 min, additional compounds Ex. 115-228, read-out: G5678A (U):IC50
# T1 sequence (O76083 whole entry): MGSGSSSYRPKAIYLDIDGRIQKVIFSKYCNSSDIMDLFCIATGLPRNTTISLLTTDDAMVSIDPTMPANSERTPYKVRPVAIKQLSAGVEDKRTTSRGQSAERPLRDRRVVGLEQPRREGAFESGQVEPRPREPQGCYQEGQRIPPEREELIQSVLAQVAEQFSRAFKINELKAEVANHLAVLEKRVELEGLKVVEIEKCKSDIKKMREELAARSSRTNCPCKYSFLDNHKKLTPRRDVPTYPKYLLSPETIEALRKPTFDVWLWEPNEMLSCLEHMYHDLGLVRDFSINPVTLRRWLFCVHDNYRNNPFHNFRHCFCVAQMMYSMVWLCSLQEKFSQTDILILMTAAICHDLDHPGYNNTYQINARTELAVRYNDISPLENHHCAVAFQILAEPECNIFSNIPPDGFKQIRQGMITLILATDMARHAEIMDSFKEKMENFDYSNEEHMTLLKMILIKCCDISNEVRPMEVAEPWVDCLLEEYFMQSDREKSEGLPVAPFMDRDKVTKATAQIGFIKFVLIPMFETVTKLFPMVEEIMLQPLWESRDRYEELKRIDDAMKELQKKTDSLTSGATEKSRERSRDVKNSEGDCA
Structure (SMILES),IC50 [1] [µM],IC50 [2] [µM],other results
"Cc1ccc(CN2C[C@@H](C)[C@H](c3nc4c(cnn4C4CCOCC4)c(=O)[nH]3)C2)cn1 [Example 79, 6-{(3S,4S)-4-methyl-1-[(6-methylpyridin-3-yl)methyl]pyrrolidin-3-yl}-1-(tetrahydro-2H-pyran-4-yl)-1,5-dihydro-4H-pyrazolo[3,4-d]pyrimidin-4-one]",–,–,IC50: 0.00372 µM
"CC[C@@H]1CN(C(=O)c2cnc3ccccc3n2)C[C@H]1c1nc2c(cnn2C2CCOCC2)c(=O)[nH]1 [Example 110, 6-[(3S,4S)-4-ethyl-1-(quinoxalin-2-ylcarbonyl)pyrrolidin-3-yl]-1-(tetrahydro-2H-pyran-4-yl)-1,5-dihydro-4H-pyrazolo[3,4-d]pyrimidin-4-one]",0.00259,–,–
"COc1ccccc1CN1C[C@@H](C)[C@H](c2nc3c(cnn3C3CCOCC3)c(=O)[nH]2)C1 [Example 103, 6-[(3S,4S)-1-(2-methoxybenzyl)-4-methylpyrrolidin-3-yl]-1-(tetrahydro-2H-pyran-4-yl)-1,5-dihydro-4H-pyrazolo[3,4-d]pyrimidin-4-one]",0.0152,–,–
"C[C@@H]1CN(Cc2ccccc2)C[C@H]1c1nc2c(cnn2C2CCOCC2)c(=O)[nH]1 (racemic) [Example 60, 6-[(3,4-trans)-1-benzyl-4-methylpyrrolidin-3-yl]-1-(tetrahydro-2H-pyran-4-yl)-1,5-dihydro-4H-pyrazolo[3,4-d]pyrimidin-4-one]",–,–,IC50: 0.0448 µM
"C[C@@H]1CN(Cc2ccccc2)C[C@H]1c1nc2c(cnn2C2CCSCC2)c(=O)[nH]1 [Example 102, 6-[(3S,4S)-1-benzyl-4-methylpyrrolidin-3-yl]-1-(tetrahydro-2H-thiopyran-4-yl)-1,5-dihydro-4H-pyrazolo[3,4-d]pyrimidin-4-one]",0.0197,–,–
"CC(C)c1csc(CN2C[C@@H](C)[C@H](c3nc4c(cnn4C4CCCC4)c(=O)[nH]3)C2)n1 (racemic) [Example 132, 1-cyclopentyl-6-{(3,4-trans)-1-[(4-isopropyl-1,3-thiazol-2-yl)methyl]-4-methylpyrrolidin-3-yl}-1,5-dihydro-4H-pyrazolo[3,4-d]pyrimidin-4-one]",–,0.0375,–
"CC[C@@H]1CN(Cc2cnc3ccccc3c2)C[C@H]1c1nc2c(cnn2C(C)C)c(=O)[nH]1 (racemic) [Example 44, 6-[(3,4-trans)-4-ethyl-1-(quinolin-3-ylmethyl)pyrrolidin-3-yl]-1-isopropyl-1,5-dihydro-4-H-pyrazolo[3,4-d]pyrimidin-4-one]",0.0109,–,–
CC[C@@H]1CN(Cc2cnc(C)nc2)C[C@H]1c1nc2c(cnn2C2CCOCC2)c(=O)[nH]1 (racemic) [Example 74],0.00614,–,–
"CCCc1ncc(CN2C[C@@H](C)[C@H](c3nc4c(cnn4C4CCCC4)c(=O)[nH]3)C2)cn1 (racemic) [Example 222, 1-cyclopentyl-6-{(3,4-trans)-4-methyl-1-[(2-propylpyrimidin-5-yl)methyl]pyrrolidin-3-yl}-1,5-dihydro-4H-pyrazolo[3,4-d]pyrimidin-4-one]",–,0.00603,–
"CC[C@@H]1CN(Cc2ccccc2)C[C@H]1c1nc2c(cnn2C(C)C)c(=O)[nH]1 (racemic) [Example 39, 6-[(3,4-trans)-1-benzyl-4-ethylpyrrolidin-3-yl]-1-isopropyl-1,5-dihydro-4H-pyrazolo[3,4-d]pyrimidin-4-one]",0.0581,–,–
"C[C@@H]1CN(Cc2nc3c(s2)CCCC3)C[C@H]1c1nc2c(cnn2C2CCCC2)c(=O)[nH]1 (racemic) [Example 190, 1-cyclopentyl-6-[(3,4-trans)-4-methyl-1-(4,5,6,7-tetrahydro-1,3-benzothiazol-2-ylmethyl)pyrrolidin-3-yl]-1,5-dihydro-4H-pyrazolo(3,4-d]pyrimidin-4-one]",–,0.0554,–

# Continued, in another order:
IC50 [1] [µM],IC50 [2] [µM],Structure (SMILES),other results
0.00498,–,"C[C@@H]1CN(Cc2ccnc3ccccc23)C[C@H]1c1nc2c(cnn2C2CCCC2)c(=O)[nH]1 (racemic) [Example 10, 1-cyclopentyl-6-[(3,4-trans)-4-methyl-1-(quinolin-4-ylmethyl)pyrrolidin-3-yl]-1,5-dihydro-4H-pyrazolo[3,4-d]pyrimidin-4-one]",–
–,0.0727,"CC(C)Oc1ccc(CN2C[C@@H](C)[C@H](c3nc4c(cnn4C4CCCC4)c(=O)[nH]3)C2)cc1 (racemic) [Example 188, 1-cyclopentyl-6-[(3,4-trans)-1-(4-isopropoxybenzyl)-4-methylpyrrolidin-3-yl]-1,5-dihydro-4H-pyrazolo[3,4-d]pyrimidin-4-one]",–
–,0.042,"C[C@@H]1CN(Cc2ccc(C(C)(C)O)nc2)C[C@H]1c1nc2c(cnn2C2CCCC2)c(=O)[nH]1 (racemic) [Example 174, 1-cyclopentyl-6-[(3,4-trans)-1-{[6-(1-hydroxy-1-methylethyl)pyridin-3-yl]methyl}-4-methylpyrrolidin-3-yl]-1,5-dihydro-4H-pyrazolo[3,4-d]pyrimidin-4-one]",–
–,0.0144,"CCn1nccc1CN1C[C@@H](C)[C@H](c2nc3c(cnn3C3CCCC3)c(=O)[nH]2)C1 (racemic) [Example 223, 1-cyclopentyl-6-{(3,4-trans)-1-[(1-ethyl-1H-pyrazol-5-yl)methyl]-4-methylpyrrolidin-3-yl}-1,5-dihydro-4H-pyrazolo[3,4-d]pyrimidin-4-one]",–
–,0.0774,"Cc1cc(CN2C[C@@H](C)[C@H](c3nc4c(cnn4C4CCCC4)c(=O)[nH]3)C2)no1 (racemic) [Example 145, 1-cyclopentyl-6-{(3,4-trans)-4-methyl-1-[(5-methylisoxazol-3-yl)methyl]pyrrolidin-3-yl}-1,5-dihydro-4H-pyrazolo[3,4-d]pyrimidin-4-one]",–
0.00706,–,"Cc1ccc(CN2C[C@@H](C)[C@H](c3nc4c(cnn4C4CCCC4)c(=O)[nH]3)C2)cn1 (racemic) [Example 20, 1-cyclopentyl-6-{(3,4-trans)-4-methyl-1-[(6-methylpyridin-3-yl)methyl]pyrrolidin-3-yl}-1,5-dihydro-4H-pyrazolo[3,4-d]pyrimidin-4-one]",–
–,0.067,"C[C@@H]1CN(Cc2ccno2)C[C@H]1c1nc2c(cnn2C2CCCC2)c(=O)[nH]1 (racemic) [Example 172, 1-cyclopentyl-6-[(3,4-trans)-1-(isoxazol-5-ylmethyl)-4-methylpyrrolidin-3-yl]-1,5-dihydro-4H-pyrazolo[3,4-d]pyrimidin-4-one]",–
–,0.236,"C[C@@H]1CN(Cc2c(Cl)cccc2Cl)C[C@H]1c1nc2c(cnn2C2CCCC2)c(=O)[nH]1 (racemic) [Example 192, 1-cyclopentyl-6-[(3,4-trans)-1-(2,6-dichlorobenzyl)-4-methylpyrrolidin-3-yl]-1,5-dihydro-4H-pyrazolo[3,4-d]pyrimidin-4-one]",–
–,0.0408,"C[C@@H]1CN(Cc2cc(F)ccc2F)C[C@H]1c1nc2c(cnn2C2CCCC2)c(=O)[nH]1 (racemic) [Example 156, 1-cyclopentyl-6-[(3,4-trans)-1-(2,5-difluorobenzyl)-4-methylpyrrolidin-3-yl]-1,5-dihydro-4H-pyrazolo[3,4-d]pyrimidin-4-one]",–
–,0.0335,"C[C@@H]1CN(Cc2ccc(-n3cccn3)cc2)C[C@H]1c1nc2c(cnn2C2CCCC2)c(=O)[nH]1 (racemic) [Example 185, 1-cyclopentyl-6-{(3,4-trans)-4-methyl-1-[4-(1H-pyrazol-1-yl)benzyl]pyrrolidin-3-yl}-1,5-dihydro-4H-pyrazolo[3,4-d]pyrimidin-4-one]",–
–,0.198,"Cc1cc(C)c(CN2C[C@@H](C)[C@H](c3nc4c(cnn4C4CCCC4)c(=O)[nH]3)C2)c(C)c1 (racemic) [Example 191, 1-cyclopentyl-6-[(3,4-trans)-1-(mesitylmethyl)-4-methylpyrrolidin-3-yl]-1,5-dihydro-4H-pyrazolo[3,4-d]pyrimidin-4-one]",–
–,0.0935,"Cc1ccc(CN2C[C@@H](C)[C@H](c3nc4c(cnn4C4CCCC4)c(=O)[nH]3)C2)c(F)c1F (racemic) [Example 134, 1-cyclopentyl-6-[(3,4-trans)-1-(2,3-difluoro-4-methylbenzyl)-4-methylpyrrolidin-3-yl]-1,5-dihydro-4H-pyrazolo[3,4-d]pyrimidin-4-one]",–
–,0.0162,"C[C@@H]1CN(Cc2c(F)cccc2F)C[C@H]1c1nc2c(cnn2C2CCCC2)c(=O)[nH]1 (racemic) [Example 210, 1-cyclopentyl-6-[(3,4-trans)-1-(2,6-diflurobenzyl)-4-methylpyrrolidin-3-yl]-1,5-dihydro-4H-pyrazolo[3,4-d]pyrimidin-4-one]",–
–,0.0748,"C[C@@H]1CN(Cc2ccc3c(c2)CC(C)(C)O3)C[C@H]1c1nc2c(cnn2C2CCCC2)c(=O)[nH]1 (racemic) [Example 175, 1-cyclopentyl-6-{(3,4-trans)-1-[(2,2-dimethyl-2,3-dihydro-1-benzofuran-5-yl)methyl]-4-methylpyrrolidin-3-yl}-1,5-dihydro-4H-pyrazolo[3,4-d]pyrimidin-4-one]",–
–,0.0809,"C[C@@H]1CN(Cc2cc(Cl)ccc2Cl)C[C@H]1c1nc2c(cnn2C2CCCC2)c(=O)[nH]1 (racemic) [Example 124, 1-cyclopentyl-6-[(3,4-trans)-1-(2,5-dichlorobenzyl)-4-methylpyrrolidin-3-yl]-1,5-dihydro-4H-pyrazolo[3,4-d]pyrimidin-4-one]",–
0.00826,–,"C[C@@H]1CN(Cc2cccc3cccnc23)C[C@H]1c1nc2c(cnn2C2CCCC2)c(=O)[nH]1 (racemic) [Example 18, 1-cyclopentyl-6-[(3,4-trans)-4-methyl-1-(quinolin-8-ylmethyl)pyrrolidin-3-yl]-1,5-dihydro-4H-pyrazolo[3,4-d]pyrimidin-4-one]",–
–,0.0529,"C[C@@H]1CN(CCOCc2ccccc2)C[C@H]1c1nc2c(cnn2C2CCCC2)c(=O)[nH]1 (racemic) [Example 209, 6-{(3,4-trans)-1-[2-(benzyloxy)ethyl]-4-methylpyrrolidin-3-yl}-1-cyclopentyl-1,5-dihydro-4H-pyrazolo[3,4-d]pyrimidin-4-one]",–

# — US7964607B2, “Pyrazolo[3,4-d]pyrimidine compounds” (Pfizer Inc., priority 2007, dated 2011)
